Assay results from ChEMBL document CHEMBL1201862, “PubChem BioAssay data set” (2004).
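Step 1: Grow cells in 96-well plates. Step 2: Expose to compound for 48 hours at 5 concentrations. Step 3: Interpolate endpoints linearly; if unreached, use highest concentration. Here, GI50 denotes the concentration required for 50% inhibition of growth.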 The source made the active and inactive calls. Rule as the data show it: active = GI50 up to about 1.1 µM and inactive = higher.

How the values were obtained:
Assay in all cases: DTP human tumour cell line panel, 48 h
IGROV-1 = system: IGROV-1
SN12C = system: SN12C
TK-10 = system: TK-10
SK-MEL-28 = system: SK-MEL-28
OVCAR-3 = system: OVCAR-3
HCC 2998 = system: HCC 2998
NCI-H460 = system: NCI-H460
A549 = system: A549
SNB-75 = system: SNB-75
SF-268 = system: SF-268
LOX IMVI = system: LOX IMVI
RXF 393 = system: RXF 393
RPMI-8226 = system: RPMI-8226
HOP-62 = system: HOP-62
K562 = system: K562
NCI-H522 = system: NCI-H522
SF-539 = system: SF-539

Row | SMILES | GI50 (IGROV-1) | GI50 (SN12C) | GI50 (TK-10) | GI50 (SK-MEL-28) | GI50 (OVCAR-3) | GI50 (HCC 2998) | GI50 (NCI-H460) | GI50 (A549) | GI50 (SNB-75) | GI50 (SF-268) | GI50 (LOX IMVI) | GI50 (RXF 393) | GI50 (RPMI-8226) | GI50 (HOP-62) | GI50 (K562) | GI50 (NCI-H522) | GI50 (SF-539)
1 | NNC(=O)C(=O)N/N=C1\CCCC1C(=O)CCC(=O)Nc1cccc(Cl)c1 (stereo unspecified) | > 100 µM (inactive) | > 100 µM (inactive) | > 100 µM (inactive) | > 100 µM (inactive) | > 100 µM (inactive) | > 100 µM (inactive) | > 100 µM (inactive) | > 100 µM (inactive) | > 100 µM (inactive) | > 100 µM (inactive) | > 100 µM (inactive) | > 100 µM (inactive) | > 100 µM (inactive) | > 100 µM (inactive) | – | – | –
2 | O=C(c1ccccc1)C(c1ccccc1)C1(O)C(=O)Nc2c(Cl)cc(Cl)cc21 (stereo unspecified) | – | > 100 µM (inactive) | 18.3 µM (inactive) | 18.9 µM (inactive) | 26 µM (inactive) | 16.3 µM (inactive) | 28.2 µM (inactive) | 18.9 µM (inactive) | 15.3 µM (inactive) | 21.2 µM (inactive) | 19.5 µM (inactive) | 19.1 µM (inactive) | 8.34 µM (inactive) | > 10 µM (inactive) | 15.5 µM (inactive) | 16.6 µM (inactive) | –
3 | Cn1cc(NC(=O)c2cc(NC(=O)CCCCCCC(=O)Nc3cc(C(=O)Nc4cc(C(=O)NCCC(=N)N)n(C)c4)n(C)c3)cn2C)cc1C(=O)NCCC(=N)N | 3.8 µM (inactive) | 3.84 µM (inactive) | 11.6 µM (inactive) | 4.22 µM (inactive) | 24.5 µM (inactive) | 10.7 µM (inactive) | 3.68 µM (inactive) | 7.29 µM (inactive) | 10.1 µM (inactive) | 18.7 µM (inactive) | 5.75 µM (inactive) | 17 µM (inactive) | – | – | 5.35 µM (inactive) | – | 14.1 µM (inactive)
4 | O=Cc1c[nH]c2c(=O)[nH]cnc12 | > 100 µM (inactive) | > 100 µM (inactive) | > 100 µM (inactive) | > 100 µM (inactive) | > 100 µM (inactive) | > 100 µM (inactive) | – | > 100 µM (inactive) | > 100 µM (inactive) | > 100 µM (inactive) | > 100 µM (inactive) | > 100 µM (inactive) | > 100 µM (inactive) | > 100 µM (inactive) | > 100 µM (inactive) | > 100 µM (inactive) | –
5 | CCN(CC)CCOC(c1ccccc1)c1ccccc1.CCOC(=O)Nc1ccc(S(=O)(=O)NCCCl)cc1.CCOC(=O)Nc1ccc(S(=O)(=O)NCCCl)cc1.Nc1ccc(C(=O)O)c(O)c1 | > 100 µM (inactive) | > 100 µM (inactive) | > 100 µM (inactive) | > 100 µM (inactive) | > 100 µM (inactive) | > 100 µM (inactive) | > 100 µM (inactive) | > 100 µM (inactive) | > 100 µM (inactive) | > 100 µM (inactive) | > 100 µM (inactive) | > 100 µM (inactive) | – | > 100 µM (inactive) | > 100 µM (inactive) | > 100 µM (inactive) | > 100 µM (inactive)
6 | N#CC(NNC(=O)c1ccccc1O)c1cccc(O)c1 (stereo unspecified) | 3.4 µM (inactive) | 4.7 µM (inactive) | > 100 µM (inactive) | > 100 µM (inactive) | 13 µM (inactive) | – | 3.47 µM (inactive) | 2.21 µM (inactive) | 1.7 µM (inactive) | 0.986 µM (active) | 4.94 µM (inactive) | 1.78 µM (inactive) | > 100 µM (inactive) | 10.6 µM (inactive) | 2.31 µM (inactive) | 9.73 µM (inactive) | 2.93 µM (inactive)
7 | CCN(CC)CC1c2ccccc2C(CNc2ccccc2)N1C (stereo unspecified) | > 100 µM (inactive) | > 100 µM (inactive) | > 100 µM (inactive) | > 100 µM (inactive) | > 100 µM (inactive) | > 100 µM (inactive) | > 100 µM (inactive) | > 100 µM (inactive) | 49.3 µM (inactive) | > 100 µM (inactive) | > 100 µM (inactive) | > 100 µM (inactive) | 80.7 µM (inactive) | > 100 µM (inactive) | 57.8 µM (inactive) | > 100 µM (inactive) | –
8 | COc1cc2nncc(Sc3cnnc4ccccc34)c2cc1OC | 21.9 µM (inactive) | – | 29 µM (inactive) | 23 µM (inactive) | 17.4 µM (inactive) | 17.6 µM (inactive) | 22.8 µM (inactive) | 25.5 µM (inactive) | – | 31.1 µM (inactive) | 23.3 µM (inactive) | – | 16.9 µM (inactive) | 34.3 µM (inactive) | 26 µM (inactive) | 12.9 µM (inactive) | 21 µM (inactive)
9 | COc1cc(CC2C(=O)OCC2[C@@H](OC(C)=O)c2ccc3c(c2)OCO3)c(Br)c(OC)c1OC (stereo partly specified) | 80.2 µM (inactive) | > 100 µM (inactive) | > 100 µM (inactive) | 73.3 µM (inactive) | 59.2 µM (inactive) | 98.4 µM (inactive) | 48.3 µM (inactive) | 39.4 µM (inactive) | 28.5 µM (inactive) | > 100 µM (inactive) | > 100 µM (inactive) | 51.3 µM (inactive) | – | > 100 µM (inactive) | – | 26.5 µM (inactive) | > 100 µM (inactive)
10 | CC1=NN(C(=O)c2ccc(Cl)cc2)C(=O)/C1=C/c1cccc(O)c1 | > 100 µM (inactive) | > 100 µM (inactive) | > 100 µM (inactive) | > 100 µM (inactive) | > 100 µM (inactive) | > 100 µM (inactive) | > 100 µM (inactive) | > 100 µM (inactive) | – | > 100 µM (inactive) | > 100 µM (inactive) | > 100 µM (inactive) | > 100 µM (inactive) | > 100 µM (inactive) | > 100 µM (inactive) | > 100 µM (inactive) | > 100 µM (inactive)
11 | C/C(=N\[N+](C)(C)C)C(c1ccccc1)C1(c2ccccc2)C(c2ccccc2)=C1c1ccccc1 (stereo unspecified) | > 100 µM (inactive) | > 100 µM (inactive) | 90.2 µM (inactive) | – | > 100 µM (inactive) | > 100 µM (inactive) | > 100 µM (inactive) | > 100 µM (inactive) | – | – | > 100 µM (inactive) | 22 µM (inactive) | > 100 µM (inactive) | 33 µM (inactive) | > 100 µM (inactive) | > 100 µM (inactive) | 37.5 µM (inactive)
12 | c1ccc2c3c([nH]c2c1)[C@H]1C2CCCCN2CN1CC3 (stereo partly specified) | > 100 µM (inactive) | > 100 µM (inactive) | > 100 µM (inactive) | > 100 µM (inactive) | > 100 µM (inactive) | > 100 µM (inactive) | > 100 µM (inactive) | > 100 µM (inactive) | 27.1 µM (inactive) | 51.6 µM (inactive) | – | 89.9 µM (inactive) | > 100 µM (inactive) | > 100 µM (inactive) | > 100 µM (inactive) | > 100 µM (inactive) | > 100 µM (inactive)
13 | COc1ccc(-c2cc(C(=O)Nc3ccc(C)c(C)c3)nc(NC#N)n2)cc1 | > 100 µM (inactive) | > 100 µM (inactive) | > 100 µM (inactive) | > 100 µM (inactive) | > 100 µM (inactive) | – | > 100 µM (inactive) | > 100 µM (inactive) | > 100 µM (inactive) | > 100 µM (inactive) | > 100 µM (inactive) | > 100 µM (inactive) | > 100 µM (inactive) | – | > 100 µM (inactive) | > 100 µM (inactive) | > 100 µM (inactive)
